Consider 31 molecules from patent US7511065B2, “Mixed lineage kinase modulators” (Eli Lilly and Company, priority 2002, dated 2009).

pIC50: −log10 of the molar value. Counter-ions that a name gives are not always drawn.

The target of this assay is T1, MLK-7 (Homo sapiens, UniProt Q9NYL2).
T1 construct: GST; His tag; made in house; host or cells: Sf9 insect cells (baculovirus, pVL1392)
Put plainly: In vitro assay of purified MLK-7 kinase activity (33P transfer from ATP to myelin basic protein). The class given is biochemical. As to conditions: recombinant GST-tagged MLK-7 at 1 nm, 30 uM ATP, 5 uM MBP substrate, 2 hours room temperature; read-out: MLK7 IC50. The procedure, abridged:
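GST/His-tagged MLK-7 from Sf9 (baculovirus), 1 nM, with 5 uM MBP, 30 uM ATP plus 33P, 5 mM MgCl2, 2 mM DTT, 4% DMSO in 44 mM HEPES pH 7.4; 2 h at room temperature, stopped with phosphoric acid. Filter-bound 33P counted; IC50 for reduced phosphate transfer, Ki via Cheng-Prusoff.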
In the case of `CSC[C@@H](NC(=O)c1ccc(-c2ccc3c(-c4c(-c5ccccn5)nn5c4CCC5)ccnc3c2)cc1)C(=O)OC(C)(C)C` [Example 134, 3-Methylsulfanyl-2(S)-{4-[4-(2-pyridin-2-yl-5,6-dihydro-4H-pyrrolo[1,2-b]pyrazol-3-yl)-quinolin-7-yl]-benzoylamino}-propionic Acid tert-Butyl Ester], the negative-log IC50 (pIC50) – broadly, the negative decadic logarithm of the IC50, by convention in mol/L – is ≥ 6.00. With `c1ccc(-c2nn3c(c2-c2ccnc4cc(N5CCCCC5)ccc24)CCC3)nc1` [Example 103, 7-Piperidin-1-yl-4-(2-pyridin-2-yl-5,6-dihydro-4H-pyrrolo[1,2-b]pyrazol-3-yl)-quinoline] the figure was ≥ 6.00; with `O=C(O)c1cccc(-c2ccc3c(-c4c(-c5ccccn5)nn5c4CCC5)ccnc3c2)c1` [Example 43, 3-[4-(2-pyridin-2-yl-5,6-dihydro-4H-pyrrolo[1,2-b]pyrazol-3-yl)quinolin-7-yl]benzoic Acid Trifluoroacetic Acid], ≥ 7.00; with `O=C(c1ccc(-c2ccc3c(-c4c(-c5ccccn5)nn5c4CCC5)ccnc3c2)cc1)N1CCCCC1` [Example 122, Piperidin-1-yl-{4-[4-(2-pyridin-2-yl-5,6-dihydro-4H-pyrrolo[1,2-b]pyrazol-3-yl)-quinolin-7-yl]-phenyl}-methanone], ≥ 7.00. Take `Cc1cccc(-c2nn3c(c2-c2ccnc4cc(-c5cccc([N+](=O)[O-])c5)ccc24)CCC3)n1` [Example 63, 4-[2-(6-Methyl-pyridin-2-yl)-5,6-dihydro-4H-pyrrolo[1,2-b]pyrazol-3-yl]-7-(3-nitro-phenyl)quinoline]: the pIC50 was ≥ 7.00. On to `c1ccc(-c2nn3c(c2-c2ccnc4cc(-c5ccc(C6CCCCC6)cc5)ccc24)CCC3)nc1` [Example 53, 7-(4-Cyclohexyl-phenyl)-4-(2-pyridin-2-yl-5,6-dihydro-4H-pyrrolo[1,2-b]pyrazol-3-yl)-quinoline Trifluoroacetic Acid], for which the negative-log IC50 (pIC50) is ≥ 5.00.

For the molecule `NC(=O)CNC(=O)c1ccc(-c2ccc3c(-c4c(-c5ccccn5)nn5c4CCC5)ccnc3c2)cc1` [Example 125, N-Carbamoylmethyl-4-[4-(2-pyridin-2-yl-5,6-dihydro-4H-pyrrolo[1,2-b]pyrazol-3-yl)-quinolin-7-yl]-benzamide], the pIC50 is ≥ 7.00. With `CS(=O)(=O)CCNC(=O)c1ccc(-c2ccc3c(-c4c(-c5ccccn5)nn5c4CCC5)ccnc3c2)cc1` [Example 139, N-(2-Methanesulfonyl-ethyl)-4-[4-(2-pyridin-2-yl-5,6-dihydro-4H-pyrrolo[1,2-b]pyrazol-3-yl)-quinolin-7-yl]-benzamide] the figure was ≥ 7.00.

Take `Oc1cccc(-c2ccc3c(-c4c(-c5ccccn5)nn5c4CCC5)ccnc3c2)c1` [Example 6, 3-[4-(2-Pyridin-2-yl-5,6-dihydro-4H-pyrrolo[1,2-b]pyrazol-3-yl)quinolin-7-yl]phenol Trifluoroacetic Acid]: the pIC50 was ≥ 7.00.

On to `O=C(c1ccc(-c2ccc3c(-c4c(-c5ccccn5)nn5c4CCC5)ccnc3c2)cc1)N1CCOCC1` [Example 124, Morpholin-4-yl-{4-[4-(2-pyridin-2-yl-5,6-dihydro-4H-pyrrolo[1,2-b]pyrazol-3-yl)-quinolin-7-yl]-phenyl}-methanone], for which the pIC50 was ≥ 7.00. With `c1ccc(-c2nn3c(c2-c2ccnc4cc(-c5cccnc5)ccc24)CCC3)nc1` [Example 35, 7-Pyridin-3-yl-4-(2-Pyridin-2-yl-5,6-dihydro-4H-pyrrolo[1,2-b]pyrazol-3-yl)quinoline Ditrifluoroacetic Acid] the figure was ≥ 7.00. For `CC(C)Cc1ccc(-c2ccc3c(-c4c(-c5ccccn5)nn5c4CCC5)ccnc3c2)cc1` [Example 45, 7-(4-Isobutylphenyl)-4-(2-pyridin-2-yl-5,6-dihydro-4H-pyrrolo[1,2-b]pyrazol-3-yl)quinoline Trifluoroacetic Acid], the pIC50 was ≥ 6.00.

As to `COCCOc1ccc(-c2ccc3c(-c4c(-c5ccccn5)nn5c4CCC5)ccnc3c2)cc1` [Example 118], the pIC50 is ≥ 7.00. With `CC(=O)c1ccc(-c2ccc3c(-c4c(-c5ccccn5)nn5c4CCC5)ccnc3c2)cc1` [Example 28, 1-{4-[4-(2-Pyridin-2-yl-5,6-dihydro-4H-pyrrolo[1,2-b]pyrazol-3-yl)quinolin-7-yl]phenyl}ethanone Trifluoroacetic Acid] the figure was ≥ 7.00; with `NS(=O)(=O)c1cccc(-c2ccc3c(-c4c(-c5ccccn5)nn5c4CCC5)ccnc3c2)c1` [Example 96, 3-[4-(2-Pyridin-2-yl-5,6-dihydro-4H-pyrrolo[1,2-b]pyrazol-3-yl)-quinolin-7-yl]-benzenesulfonamide], ≥ 7.00. Then `c1ccc(-c2nn3c(c2-c2ccnc4cc(-n5cncn5)ccc24)CCC3)nc1` [Example 99, 4-(2-Pyridin-2-yl-5,6-dihydro-4H-pyrrolo[1,2-b]pyrazol-3-yl)-7-[1,2,4]triazol-1-yl-quinoline ditrifluoroacetic Acid], with ≥ 6.00; and `O=C(O)C(F)F.c1ccc(-c2nn3c(c2-c2ccnc4cc(-c5ncccn5)ccc24)CCC3)nc1` [Example 85, 4-(2-Pyridin-2-yl-5,6-dihydro-4H-pyrrolo[1,2-b]pyrazol-3-yl)-7-pyrimidin-2-yl-quinoline Difluoroacetic Acid], with ≥ 6.00. As for `NC(=O)CCc1ccc(-c2ccc3c(-c4c(-c5ccccn5)nn5c4CCC5)ccnc3c2)cc1` [Example 107, 3-{4-[4-(2-Pyridin-2-yl-5,6-dihydro-4H-pyrrolo[1,2-b]pyrazol-3-yl)quinolin-7-yl]phenyl}propionamide], the pIC50 was ≥ 7.00.

`c1ccc(-c2nn3c(c2-c2ccnc4cc(-c5ccc[nH]5)ccc24)CCC3)nc1` [Example 69, 4-(2-pyridin-2-yl-5,6-dihydro-4H-pyrrolo[1,2-b]pyrazol-3-yl)-7-(1H-pyrrol-2-yl)quinoline Ditrifluoroacetic Acid]: the pIC50 is ≥ 7.00. With `COC(=O)c1cc(C(=O)OC)cc(-c2ccc3c(-c4c(-c5ccccn5)nn5c4CCC5)ccnc3c2)c1` [Example 80, 5-[4-(2-Pyridin-2-yl-5,6-dihydro-4H-pyrrolo[1,2-b]pyrazol-3-yl)quinolin-7-yl]isophthalic Acid Dimethyl Ester Trifluoroacetic Acid] the figure was ≥ 5.00; with `O=C(O)CCc1ccc(-c2ccc3c(-c4c(-c5ccccn5)nn5c4CCC5)ccnc3c2)cc1` [Example 30, 3-{4-[4-(2-Pyridin-2-yl-5,6-dihydro-4H-pyrrolo[1,2-b]pyrazol-3-yl)quinolin-7-yl]phenyl}propionic Acid Trifluoroacetic Acid], ≥ 7.00. Then “7-(4-Methyl-3-nitro-phenyl)-4-(2-pyridin-2-yl-5,6-dihydro-4H-pyrrolo[1,2-b]pyrazol-3-yl)-quinoline Trifluoroacetic Acid [Example 52]”, with ≥ 7.00; and `Cc1cc(-c2ccc3c(-c4c(-c5ccccn5)nn5c4CCC5)ccnc3c2)ccc1F` [Example 21, 7-(4-Fluoro-3-methylphenyl)-4-(2-pyridin-2-yl-5,5-dihydro-4H-pyrrolo[1,2-b]pyrazol-3-yl)quinoline Trifluoroacetic Acid], with ≥ 6.00. With “7-(3-Nitrophenyl)-4-(2-pyridin-2-yl-5,6-dihydro-4H-pyrrolo[1,2-b]pyrazol-3-yl)quinoline Trifluoroacetic Acid [Example 49]” the figure was ≥ 7.00; with `CC(C)(C)SCCNC(=O)c1ccc(-c2ccc3c(-c4c(-c5ccccn5)nn5c4CCC5)ccnc3c2)cc1` (racemic) [Example 127, (rac) N-(2-tert-Butylsulfanyl-ethyl)-4-[4-(2-pyridin-2-yl-5,6-dihydro-4H-pyrrolo[1,2-b]pyrazol-3-yl)-quinolin-7-yl]-benzamide], ≥ 6.00; with `Cc1ccc(-c2ccc3c(-c4c(-c5ccccn5)nn5c4CCC5)ccnc3c2)cc1` [Example 77, 4-(2-pyridin-2-yl-5,6-dihydro-4H-pyrrolo[1,2-b]pyrazol-3-yl)-7-p-tolylquinoline Trifluoroacetic Acid], ≥ 7.00. For the molecule `O=C(O)c1cccc(-c2ccc3c(-c4c(-c5ccccn5)nn5c4CCC5)ccnc3c2)n1` [Example 82, 6-[4-(2-Pyridin-2-yl-5,6-dihydro-4H-pyrrolo[1,2-b]pyrazol-3-yl)quinolin-7-yl]pyridine-2-carboxylic Acid Tris-trifluoroacetic Acid], the pIC50 was ≥ 7.00. Then `Cc1ccc(-c2ccc3c(-c4c(-c5ccccn5)nn5c4CCC5)ccnc3c2)cc1N` [Example 33, 2-Methyl-5-[4-(2-Pyridin-2-yl-5,6-dihydro-4H-pyrrolo[1,2-b]pyrazol-3-yl)quinolin-7-yl]phenylamine Ditrifluoroacetic Acid], with ≥ 7.00.

For the molecule `c1ccc(-c2nn3c(c2-c2ccnc4cc(-n5cccn5)ccc24)CCC3)nc1` [Example 100, 7-Pyrazol-1-yl-4-(2-pyridin-2-yl-5,6-dihydro-4H-pyrrolo[1,2-b]pyrazol-3-yl)quinoline Trifluoroacetic Acid], the pIC50 is ≥ 7.00.

Consider `COc1ccc(-c2ccc3c(-c4c(-c5cccc(C)n5)nn5c4CCC5)ccnc3c2)cc1` [Example 60, 7-(4-Methoxy-phenyl)-4-[2-(6-methyl-pyridin-2-yl)-5,6-dihydro-4H-pyrrolo[1,2-b]pyrazol-3-yl]-quinoline], for which the pIC50 is ≥ 7.00. Then `CSC[C@@H](NC(=O)c1ccc(-c2ccc3c(-c4c(-c5ccccn5)nn5c4CCC5)ccnc3c2)cc1)C(=O)O` [Example 145, 3-Methylsulfanyl-2(S)-{4-[4-(2-pyridin-2-yl-5,6-dihydro-4H-pyrrolo[1,2-b]pyrazol-3-yl)-quinolin-7-yl]-benzoylamino}-propionic Acid Trifluoroacetic Acid Salt], with ≥ 7.00.
